From article PMC9467586, “Development of novel 9-O-substituted-13-octylberberine derivatives as potential anti-hepatocellular carcinoma agents” (Journal of Enzyme Inhibition and Medicinal Chemistry, 2022) come the findings set out here.

Where two headings read alike, the source gives them in different places.

The test system of one data set is HepG2 cells. As to the kind of experiment: In vitro antiproliferative MTT assay, HepG2 cells. Type of data set: cell-based, human. To be noted: Homo sapiens, 72 h, mean ± SD (n = 3), read-out: IC50 (antiproliferative activity against HepG2 cells). How it is done:
(§1) HepG2, Sk-Hep-1, Huh-7, Hep3B and L-02 cells were purchased from Nanjing Key Gen Biotech Co. Ltd. (Nanjing, China). The cytotoxicity of test compounds was determined using an MTT assay. Briefly, the cell lines were incubated at 37 °C in a humidified 5% CO2 incubator for 24 h in 96-microwell plates. After medium removal, 100 μL of culture medium with 0.1% DMSO containing test compounds at different concentrations was added to each well and incubated at 37 °C for another 72 h. The MTT (5 mg/mL in PBS) was added and incubated for another 4 h, the optical density was detected with a microplate reader at 490 nm. The IC50 values were calculated according to the dose-dependent curves. All the experiments were repeated in at least three independent experiments.
Background: Formazan colour is commonly taken as a measure of viable cells.

The next data set deals with duplex DNA (F10T). As to the kind of experiment: FRET-melting assay, F10T (duplex DNA model). In kind it is binding. As to conditions: 2 μM compounds.
The next data set relates to Sk-Hep-1 cells. Put plainly: In vitro antiproliferative MTT assay, Sk-Hep-1 cells. To be noted: Homo sapiens, SK-HEP1, 72 h, mean ± SD (n = 3). Type of data set: cell-based, human. How it is done: as §1
The subject of data set [1] is human hepatoma cells including HepG2, Sk-Hep-1 and Huh-7 cells. Put plainly: Antiproliferative MTT assay, summary over human hepatoma cells. To be noted: read-out: IC50 values against human hepatoma cells (span over cell lines). In kind it is cell-based. Here is the method:
as §1

Another data set has as its system c-MYC G4 DNA (FPu18T). As to the kind of experiment: FRET-melting assay, FPu18T (c-MYC G4 DNA model). As to conditions: 2 μM compounds.
The nature of data set [2]: Aqueous solubility measurement by HPLC. In kind it is physicochemical. As to conditions: 25 °C. How it is done:
Berberine, 3c and 6k (5 mg) were dissolved in 1 ml PBS (50 mM, pH 7.4) at 25 °C. The suspension was sonicated for 30 min and then centrifuged at 15000 g for 5 min. The supernatant was filtered through a PTFE filter (0.2 μm) slowly. Then 10 μL filtered solution was injected into the HPLC system (Shimadzu DGU-20A3R) on a Shimadzu-GL WondaSil C18-WR column and quantified using the standard curves made by the corresponding known concentrations of berberine, 3c and 6k. The eluent was methanol/water (65/35, v/v) at a flow rate of 1.0 ml/min with the detection wavelength at 254 nm.

In a further data set the test system is normal hepatocytes L-02. Put plainly: MTT cytotoxicity assay, normal hepatocytes L-02. In kind it is cell-based. As to conditions: Hepatocyte; normal hepatocytes L-02, MTT, 72 h, mean ± SD (n = 3). How it is done: as §1
The subject of data set [3] is H22 liver cancer xenograft. Put plainly: In vivo anti-HCC assay, H22 liver cancer xenograft mouse model. Also noted: species or system mice. As to conditions: 30 mg/kg, intravenous, once a day for 21 days, H22 mice. Here is the method: Five-week-old male Institute of Cancer Research (ICR) mice were purchased from Shanghai SLAC Laboratory Animals Co. Ltd. Briefly, a total of 1 × 10^6 H22 cells were subcutaneously inoculated into the right flank of ICR mice according to protocols of tumour transplant research, to initiate tumour growth. After incubation for one day, mice were weighed and randomly divided into 5 groups of 8 animals. The groups were administered berberine (30 mg/kg) and 6k (15 or 30 mg/kg) in a vehicle of 10% DMF/2% Tween 80/88% saline, respectively. Vehicle and cyclophosphamide (20 mg/kg) were employed as negative and positive controls, respectively. Treatments were performed by intravenous injection once per day for a total of 21 consecutive days. Body weights and tumour volumes were measured every 2 days. The mice were sacrificed after the treatments, and the tumours were excised and weighed. The tumour volume and inhibition rate (w/w) were calculated as follows: tumour volume = L × W^2/2, where L is the length and W is the width; tumour inhibitory ratio (%) = (1-average tumour weight of treated group/average tumour weight of control group) × 100%. All procedures were performed following institutional approval in accordance with the NIH Guide for the Care and Use of Laboratory Animals.

In another data set the test system is Hep3B cells. As to the kind of experiment: In vitro antiproliferative MTT assay, Hep3B cells. In kind it is cell-based, human. To be noted: Homo sapiens, 72 h, mean ± SD (n = 3). Here is the method: as §1
In a further data set the test system is Huh-7 cells. Put plainly: In vitro antiproliferative MTT assay, Huh-7 cells. In kind it is cell-based, human. As to conditions: Homo sapiens, 72 h, mean ± SD (n = 3). Here is the method: as §1
Data set [4] can be described thus: LWP coefficient (log D) measurement, shake flask. In kind it is physicochemical. How it is done: Berberine, 3c and 6k of 1 mg were dissolved in three centrifugal tubes (5 ml) containing phosphate buffer (pH 7.4)-saturated 1-octanol solution (2 mL), followed by the addition of 1-octanol saturated PBS (2 mL). Each tube was vigorously mixed for 1 min and then shaken for 6 h at a speed of 1000 rpm at 37 °C. The mixtures were then centrifuged. 1 mL of 1-octanol phase and 1 mL of buffer were separately collected. Each phase was diluted to a suitable concentration and analysed by HPLC (Shimadzu DGU-20A3R) on a Shimadzu-GL WondaSil C18-WR column (λ = 254 nm) with an eluent of methanol/water (65/35, v/v, 1.0 ml/min). The log D value for each compound was calculated from the ratio of the peak areas using the following equation: Log D = log (Areaoct × x/Areabuf × y). x, y is the dilution factor.

As to `COc1ccc2cc3[n+](cc2c1OC)CCc1cc2c(cc1-3)OCO2` [Berberine], the 50% inhibitory concentration (IC50) (with HepG2 cells; with Sk-Hep-1 cells; in data set [1]; in the data set on normal hepatocytes L-02; with Hep3B cells; in the data set with Huh-7 cells) was more than 50 µM in each case. In addition, the “ΔTm(B) = Tm(F10T + compound) - Tm(F10T)” value with duplex DNA (F10T) is 2.0 °C. The “ΔTm(A) = Tm(FPu18T + compound) - Tm(FPu18T)” value in the data set with c-MYC G4 DNA (FPu18T) stood at 1.2 °C. The solubility at 30 min in data set [2] (PBS (50 mM, aqueous buffer, thermodynamic from solid), PBS (pH 7.4), HPLC, read-out: Solubility) is 1360 µg/mL. For the same compound, the “tumour inhibitory rate (TIR, w/w)” value in data set [3] came to 47.3%. Also, in data set [4] (1-octanol/phosphate buffer (PBS), 1-octanol/PBS pH 7.4, shake flask, 37 °C, read-out: Log D), the logD is -0.98.

Take `CCCCCCCCc1c2[n+](cc3c(OC)c(OC)ccc13)CCc1cc3c(cc1-2)OCO3.[Cl-]` [Compound 3c, 9,10-Dimethoxy-13-octyl-5,6-dihydro-[1,3]dioxolo[4,5-g]isoquinolino[3,2-a]isoquinolin-7-ium chloride]: the half-inhibitory concentration (IC50) in the data set with HepG2 cells amounted to 4.12 ± 0.26 µM. Besides, the solubility at 30 min in data set [2] (pH 7.4, aqueous buffer, thermodynamic from solid) was determined as 1120 µg/mL. The logD in data set [4] (pH 7.4) was 2.41.

By IC50 is commonly meant the concentration needed to halve the response being measured. For orientation: solubility means the dissolved amount per volume that the medium holds.
